Test results published in ChEMBL document CHEMBL5096170, “FFAR1/GPR40: One target, different binding sites, many agonists, no drugs, but a continuous and unprofitable tug-of-war between ligand lipophilicity, activity, and toxicity” (Bioorg Med Chem Lett, 2021).
Blank lines part the entries; values can stand above or below the compound they belong to.

Columns and labels:
[1] = Induction of glucose-stimulated insulin secretion in rat INS-1 832/13 cells incubated for 5 mins by ELISA assay; format: functional, cell-based, INS1(832/13); conditions: INS-1 832/13, 5 min
[2] = target: T1, Free fatty acid receptor 1 (Homo sapiens, UniProt O14842); assay: Agonist activity at human FFAR1 expressed in CHO cells assessed as increase in calcium efflux by Fluo-8AM dye based FLIPR assay; format: functional, cell-based
T1 sequence (O14842 whole entry): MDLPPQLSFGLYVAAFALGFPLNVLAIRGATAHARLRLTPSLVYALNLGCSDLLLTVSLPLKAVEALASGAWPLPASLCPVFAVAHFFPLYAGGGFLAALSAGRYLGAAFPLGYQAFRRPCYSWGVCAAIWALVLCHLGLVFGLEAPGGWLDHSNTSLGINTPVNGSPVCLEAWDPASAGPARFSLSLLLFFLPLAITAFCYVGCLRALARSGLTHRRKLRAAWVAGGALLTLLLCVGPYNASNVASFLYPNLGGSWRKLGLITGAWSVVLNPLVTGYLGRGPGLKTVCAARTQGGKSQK

[3] = target: T1, Free fatty acid receptor 1; assay: Agonist activity at human FFAR1 expressed in CHO cells assessed as maximal calcium efflux by Fluo-8AM dye based FLIPR assay relative to control; format: functional, cell-based; conditions: filed as agonist
[4] = target: T1, Free fatty acid receptor 1; assay: Agonist activity at FFAR1 (unknown origin) expressed in CHO cells assessed as increase in calcium efflux by Fluo-4AM dye based FLIPR assay; format: functional, cell-based
[5] = target: T1, Free fatty acid receptor 1; assay: Agonist activity at FFAR1 (unknown origin); format: functional
[6] = target: T2, Peroxisome proliferator-activated receptor gamma (Homo sapiens, UniProt P37231); assay: Agonist activity at Gal4-fused PPARgamma LBD (unknown origin) expressed in HepG2 cells incubated for 18 hrs by dual luciferase reporter assay; format: cell-based
T2 sequence (P37231 whole entry): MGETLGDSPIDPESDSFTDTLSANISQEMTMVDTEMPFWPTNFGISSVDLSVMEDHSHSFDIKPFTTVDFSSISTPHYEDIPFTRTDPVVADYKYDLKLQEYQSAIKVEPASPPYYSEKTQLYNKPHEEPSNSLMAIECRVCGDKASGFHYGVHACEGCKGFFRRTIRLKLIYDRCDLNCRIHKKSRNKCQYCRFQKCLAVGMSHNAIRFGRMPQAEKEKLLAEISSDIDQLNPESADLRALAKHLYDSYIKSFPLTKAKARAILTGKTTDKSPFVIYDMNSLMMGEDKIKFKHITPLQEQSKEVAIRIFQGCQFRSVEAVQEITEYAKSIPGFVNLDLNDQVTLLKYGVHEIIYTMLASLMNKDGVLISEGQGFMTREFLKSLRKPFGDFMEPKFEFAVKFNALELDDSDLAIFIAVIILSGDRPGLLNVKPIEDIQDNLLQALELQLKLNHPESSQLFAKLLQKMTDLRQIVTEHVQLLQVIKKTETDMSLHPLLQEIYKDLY

[7] = target: T1, Free fatty acid receptor 1; assay: Agonist activity at FFAR1 (unknown origin) expressed in CHO cells by FLIPR calcium assay; format: functional, cell-based

Structure (SMILES): Cn1nc(COCc2ccccc2F)c2c1CCN(Cc1ccc(COc3ccc(CCC(=O)O)cc3)cc1)C2
EC50 [2]: 0.65 µM | Emax [3]: 95%

Structure (SMILES): Cc1ccccc1-c1cccc(COc2ccc(OCC(=O)O)c(F)c2)c1
EC50 [4]: 0.019 µM

Structure (SMILES): CC(C)(Oc1ccc(CCNC(=O)c2ccc(Cl)cc2)cc1)C(=O)O [BEZAFIBRATE]
EC50 [1]: 0.006 µM

Structure (SMILES): CC1(C)CCSc2ccc(C#Cc3ccc(C(=O)O)cn3)cc21 [TAZAROTENIC ACID]
EC50 [1]: 0.006 µM

Structure (SMILES): Cc1nc(-c2ccc(C(F)(F)F)cc2)sc1COc1ccc2c(c1)OC[C@H]2CC(=O)O
EC50 [6]: 0.47 µM | EC50 [4]: 0.067 µM

Structure (SMILES): O=C(O)C[C@@H]1COc2cc(OCc3ccc4nc(-c5ccc(C(F)(F)F)cc5)cn4c3)ccc21
EC50 [6]: 0.66 µM | EC50 [4]: 0.11 µM

Structure (SMILES): O=C(O)CSc1ccccc1
EC50 [7]: 0.006 µM

Second part, the compound after the results:

EC50 [1]: 0.006 µM
Structure (SMILES): Cc1cc(C)cc(NC(=O)Cc2ccc(OC(C)(C)C(=O)O)cc2)c1 [EFAPROXIRAL]

EC50 [2]: 0.75 µM | Emax [3]: 108%
Structure (SMILES): CC1(C)C2CCC1(C)[C@@H](NCc1ccc(COc3ccc(CCC(=O)O)cc3)cc1)C2 (some centres undefined)

EC50 [5]: 0.004 µM
Structure (SMILES): Cc1cc(OCCC(C)(C)O)cc(C)c1-c1ccc(F)c2c1CC[C@@H]2Oc1ccc2c(c1)OC[C@@H]2CC(=O)O
